In patent US20230381160A1, “PROPHYLATIC USE OF CALCIUM CHANNEL BLOCKERS IN TUBERCULOSIS” (priority 2020, published 2023):

System: active TB
Assay: Nested case-control study (NHIRD): drug use and risk of incident active TB
Assay type: in vivo, human
Details: incidence of active TB
Excerpt: National Health Insurance (NHI) program of Taiwan is a compulsory single-payer system that enrolls approximately 24 million residents with 99.8% coverage. We conducted a nested case-control study using the National Health Insurance Research Database (NHIRD) approved from the institutional review board of National Taiwan University Hospital. The NHIRD used a systematic approach to randomly select one million people from the enrollees of NHI, which represents the age, sex, and geographical region distribution of the Taiwanese population. The computerized NHIRD includes information on patient demographics, outpatient and inpatient electronic claim records, individual diagnoses by ICD-9 CM codes, operations, and prescribed medications. Detailed information regarding the name of the prescribed drugs, route of administration, quantity, and number of days of supply are also available. The study was approved by the Institutional Review Board at National Taiwan University Hospital (No. 201311043RINB). Patients' consent was waived because this is an electronic database study using anonymous subjects.
The study cohort consisted of all adult patients (≥18 years old) from the NHIRD that were followed longitudinally between January 1999 and December 2011. We used 1999 as pre-enrollment periods. TB was defined as those with any code for TB according to the ICD-9 CM codes (ICD-9 CM codes: 010-018, including all subcategories). All participants in the study cohort were followed and contributed person-time from the first day of 2000 until the earliest of the following end points: first diagnosis of active TB, termination of health insurance coverage, death, or the end of the study period, whichever came first. The year before the year of TB diagnosis was used for the evaluation of the drug exposure. […]
We assessed the covariates from the cohort entry to the year before the index date. Covariates assessed included: demographics, pre-existing chronic diseases, medications used, and proxy indicators for the lifestyle such as alcohol consumption or smoking related illness, and obesity or malnutrition. […]

## COC(=O)C1=C(C)NC(C)=C(C(=O)OC)C1c1ccccc1[N+](=O)[O-] [Nifedipine, nifedipine]
Average daily dose 10 mg
  IR % (case/person-years): 0% (0/694)
Average daily dose 20 mg
  IR % (case/person-years): 0.34% (6/1,755)
Average daily dose 30 mg
  IR % (case/person-years): 0.40% (6/1,499)
